Series [1] has as its system MPTP-injected C57 black mice. Kind of series: MPTP mouse model, intravenous pre-treatment. Particulars: 5 mg/kg i.v. The format is in vivo. Here is the method: 24 C57 black mice (C57/bl6, 6-8 week old, and 25-30 g) were purchased from Charles River Laboratories, Ohio. […] Prior to treatment animals were pre-trained on rotarod for at least 3 minutes every day for three successive days. Test compound (5 mg/kg) was administered intravenously to group C animals, 24 h prior to MPTP-injection and continued daily for additional 11 days. MPTP was dissolved in PBS and injected intraperitoneally (i.p.) at doses of 25 mg/kg, once daily for 5 days to group B and C animals. Group A animals were injected with saline (i.p.) to be used as controls. Urine and Faeces were collected on Day 8, behavioural studies were performed on Day 9 (4-days post-MPTP). On day 12 (7 days post-MPTP), 4 animals/group were sacrificed, different brains regions including striatum and substantia nigra were dissected. Left striatum were used for neurochemical analysis. Other 4 animals/group were perfused and used for TH immunohistological studies.

Another series deals with DYRK1A (Homo sapiens (Human), UniProt Q13627). The series can be described thus: In vitro DYRK1A inhibition assay. In kind it is biochemical.
The nature of the next series: in vivo. Particulars: male, Sprague Dawley, rat. The source says:
To investigate the pharmacokinetic profiles of test compound following intravenous bolus administration and oral gavage in male Sprague Dawley rats.

The test system of series [2] is 299 protein kinases+17 additional preview kinases. The series can be described thus: Protein Kinase Selectivity Profiler. The format is biochemical, human. The conditions noted are these: 10 μM ATP; for % enzyme inhibition relative to DMSO controls: LRRK2, LRRK2 G2019S, CHK1, DYRK1A, FLT3, MLK1, TNIK, TRKA, single dose 0.5 μM, 1 μM. Here is the method: In vitro profiling of the 317 member kinase panel was performed at Reaction Biology Corporation using the “HotSpot” assay platform. Briefly, specific kinase/substrate pairs along with required cofactors were prepared in reaction buffer; 20 mM Hepes (pH 7.5), 10 mM MgCl2, 1 mM EGTA, 0.02% Brij35, 0.02 mg/ml BSA, 0.1 mM Na3VO4, 2 mM DTT, 1% DMSO. Compounds were delivered into the reaction, followed ˜20 min later by addition of a mixture of ATP (Sigma) and 33P ATP (PerkinElmer) to a final concentration of 10 μM. Reactions were carried out at 25° C. for 120 min, followed by spotting of the reactions onto P81 ion exchange filter paper (Whatman). Unbound phosphate was removed by extensive washing of filters in 0.75% phosphoric acid. […] IC50 values and curve fits were obtained using Prism (GraphPad Software). Kinome tree representations were prepared using Kinome Mapper (http://www.reactionbiology.com/apps/kinome/mapper/Launch Kinome.htm). Specifically for the LRRK2 enzyme the substrate LRRKtide (gene bank and protein access numbers NP_940980.2 Q5S007) and clone aa 970-2527 expressed in baculovirus in insect cells with N-terminal GST tag was employed in the study protocol. In the case of DYRK1A (SEQ ID NO 16) the substrate casein (gene bank and protein access numbers NP_001387 Q13627) full length clone expressed in insect with n-terminal tag was used.
A control compound was tested in 10-dose IC50 mode with 3-fold serial dilution starting at 20 μM. Reactions were carried out at 10 μM ATP. Data pages include raw data, % Enzyme activity (relative to DMSO controls), and curve fits.

The target of another series is LRRK2 (Homo sapiens (Human), UniProt Q5S007). The series can be described thus: LRRK2 Kinase Assay. In kind it is biochemical. Particulars: 10 μM ATP. Put shortly: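 Radiometric filter-binding assay: compound pre-incubated ~20 min with kinase and substrate peptide in 20 mM HEPES pH 7.5, 10 mM MgCl2, 1% DMSO, then 10 μM ATP with 33P-ATP added.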
Series [3] relates to MPTP-injected C57 black mice. Kind of series: MPTP mouse model of Parkinson's disease, oral pre-treatment. In kind it is in vivo. The conditions noted are these: for protection against MPTP-induced TH cell loss and dopaminergic degeneration in substantia nigra and striatum: 10 mg/kg and 30 mg/kg oral; for locomotor activities in MPTP-injected mice / striatal dopamine levels in MPTP treated mice: orally administered, pre-treatment.

The target in a further series is LRRK2 G2019S (Homo sapiens (Human), UniProt Q5S007, G2019S). Kind of series: LRRK2 G2019S Kinase Assay. The format is biochemical. Particulars: 10 μM ATP. In outline: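 Radiometric filter-binding assay: enzyme, substrate peptide and compound were mixed on ice, ATP added, then incubated 20 min at 30° C. Reaction was stopped with phosphoric acid and the peptide captured on filters. Incorporated radioactivity was read by scintillation counting; staurosporine served as reference.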

For series [4], the system named is MPTP-injected C57 black mice. Kind of series: MPTP mouse model, post-treatment study. In kind it is in vivo. Particulars: post-administration, oral and i.v routes. As for the experimental part: 32 C57 black mice (C57/bl6, 6-8 week old, 25-30 g) were purchased from Charles River Laboratories, Ohio. […] All animals were housed in Laboratory of Animal Resources vivarium at Iowa State University under standard conditions: constant temperature (22±1° C.), humidity (relative, 30%), and a 12-h light/dark cycle. Mice were allowed free access to food and water. Use of the animals and protocol procedures were approved and supervised by the Committee on Animal Care at Iowa State University (Ames, Iowa). Test compounds were dissolved in PBS for this study. Prior to treatment animals were pre-trained on rotarod for at least 3 minutes every day for three successive days. Group A animals were injected with saline (i.p.) to be used as controls. MPTP was dissolved in PBS and injected intraperitoneally (i.p.) at doses of 25 mg/kg, once daily for 5 days to group B, C and D animals. On day 4, prior to 4th MPTP injection, group C animals received test compounds (30 mg/kg, oral) daily for eight days. Similarly, on day 4, prior to 4th MPTP injection, group D animals received test compounds (5 mg/kg, i.v) daily for eight days. On day 9 (Post-test compounds administration) or day 12 (7 days post-MPTP), 4 animals/group were sacrificed, different brain regions including striatum and substantia nigra were dissected. Left striatum were used for neurochemical analysis. Other 4 animals/group were perfused and used for TH immunohistological studies.

For orientation: IC50 means the midpoint of a concentration-inhibition curve. Higher therefore signals weaker potency in that assay. Usually AUC(0-t) stands for the area under the concentration-time curve up to a stated or last time point. As usually defined, the Vd is the apparent volume that relates the amount in the body to the concentration in plasma or blood. As a reminder, the clearance is the rate of elimination divided by the concentration. By half-life is commonly meant how long it takes for the measured level to halve. As usually defined, the Cmax is the peak of the concentration-time curve. Usually Tmax stands for the time from dosing to the highest level.

LRRK2, sequence (Q5S007 970-2527): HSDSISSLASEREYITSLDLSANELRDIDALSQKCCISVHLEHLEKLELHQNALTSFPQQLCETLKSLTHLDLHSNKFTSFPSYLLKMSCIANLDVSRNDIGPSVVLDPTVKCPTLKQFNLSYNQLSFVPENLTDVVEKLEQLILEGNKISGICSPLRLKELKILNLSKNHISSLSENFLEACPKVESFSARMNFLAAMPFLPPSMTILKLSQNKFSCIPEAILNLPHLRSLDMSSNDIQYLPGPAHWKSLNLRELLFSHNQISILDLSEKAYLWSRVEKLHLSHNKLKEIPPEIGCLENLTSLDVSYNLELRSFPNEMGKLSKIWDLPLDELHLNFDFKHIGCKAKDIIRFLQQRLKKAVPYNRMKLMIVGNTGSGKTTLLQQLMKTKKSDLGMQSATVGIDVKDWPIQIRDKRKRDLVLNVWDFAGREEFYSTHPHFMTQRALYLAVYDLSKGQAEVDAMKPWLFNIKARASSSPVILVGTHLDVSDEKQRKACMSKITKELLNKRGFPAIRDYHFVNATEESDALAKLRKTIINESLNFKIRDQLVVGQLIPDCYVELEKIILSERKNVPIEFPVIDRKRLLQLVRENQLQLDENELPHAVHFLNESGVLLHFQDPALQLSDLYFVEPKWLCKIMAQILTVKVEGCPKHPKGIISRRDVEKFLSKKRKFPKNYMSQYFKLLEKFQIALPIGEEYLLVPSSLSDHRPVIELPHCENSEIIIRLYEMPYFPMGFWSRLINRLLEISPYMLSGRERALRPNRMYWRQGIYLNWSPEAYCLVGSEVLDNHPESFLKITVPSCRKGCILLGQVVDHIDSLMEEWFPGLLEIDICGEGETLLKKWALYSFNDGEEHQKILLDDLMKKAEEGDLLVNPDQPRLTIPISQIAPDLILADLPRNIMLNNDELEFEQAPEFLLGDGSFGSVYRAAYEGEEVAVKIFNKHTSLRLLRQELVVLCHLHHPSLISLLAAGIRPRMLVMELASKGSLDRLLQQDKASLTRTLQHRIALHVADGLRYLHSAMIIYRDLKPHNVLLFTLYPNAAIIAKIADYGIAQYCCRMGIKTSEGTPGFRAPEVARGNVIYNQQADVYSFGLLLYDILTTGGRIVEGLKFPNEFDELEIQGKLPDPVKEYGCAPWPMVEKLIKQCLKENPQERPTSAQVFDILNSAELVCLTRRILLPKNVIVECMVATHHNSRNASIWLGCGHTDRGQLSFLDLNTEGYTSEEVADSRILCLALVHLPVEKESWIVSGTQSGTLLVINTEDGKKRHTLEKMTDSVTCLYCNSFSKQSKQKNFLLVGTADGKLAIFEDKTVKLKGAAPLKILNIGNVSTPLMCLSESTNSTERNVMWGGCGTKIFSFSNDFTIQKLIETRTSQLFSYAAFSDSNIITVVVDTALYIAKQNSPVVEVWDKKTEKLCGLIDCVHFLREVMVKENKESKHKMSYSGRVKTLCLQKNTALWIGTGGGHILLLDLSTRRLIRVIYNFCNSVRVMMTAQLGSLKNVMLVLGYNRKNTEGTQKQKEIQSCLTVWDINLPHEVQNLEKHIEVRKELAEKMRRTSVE
LRRK2 G2019S, sequence (Q5S007 970-2527 G2019S): as the sequence (Q5S007 970-2527) above, with G1050S counted along it

Take `Cc1n[nH]c2ncc(-c3cncc(N(C)CC4CCOCC4)n3)cc12` [Compound 71, N-methyl-6-(3-methyl-1H-pyrazolo[3,4-b]pyridin-5-yl)-N-((tetrahydro-2H-pyran-4-yl)methyl)pyrazin-2-amine]: in series [1], the “protection against MPTP-induced TH neuronal loss in the substantia nigra and in the striatum” value is “Protect Against MPTP-Induced TH Neuronal Loss”. Besides, the IC50 on DYRK1A is less than 500 nM. In the series “in vivo” (iv, 5 mg/kg), this molecule gave an AUC(0-t) of 1020 ng·h/mL, a Vd of 15.2 L/kg, a clearance of 123 mL/min/kg and a half-life of 2.26 h. In addition, in the series “in vivo” (po, 30 mg/kg), the AUC(0-t) is 1040 ng·h/mL, the highest level (Cmax) was 133 ng/mL, the F worked out at 24% and the Tmax was found to be 6.7 h. Besides, in series [2] (ABL1 T315I, ALK2, ARK5, Aurora A/B/C, BRAF, C-KIT, CLK1-4, CSF1R, DYRK1A-4, FLT3, GSK3β, JAK1-3, KDR, LCK ... TRKA-C, single dose), the “activity against kinases in broader scope, relative to DMSO control” value is recorded as 5-15%. Further, the half-maximal inhibitory concentration (IC50) on LRRK2 was less than 500 nM. In series [3], the “protection against MPTP-induced TH cell loss and dopaminergic degeneration in substantia nigra and striatum” value is “dose-dependent protection”; the “locomotor activities in MPTP-injected mice” value (“locomotor activities” for short) is given as “Improve Locomotor Activities”; the “striatal dopamine levels in MPTP treated mice” value (“striatal dopamine levels” for short) is “Restore Striatal Dopamine Levels”. Moreover, the 50% inhibitory concentration (IC50) against LRRK2 G2019S is less than 500 nM.
Turning to `Cc1n[nH]c2ncc(-c3cncc(N4CCOCC4)n3)cc12` [Compound 105, 4-(6-(3-methyl-1H-pyrazolo[3,4-b]pyridin-5-yl)pyrazin-2-yl)morpholine], the “protection against MPTP-induced TH neuronal loss in the substantia nigra and in the striatum” value in series [1] is on record as “Protect Against MPTP-Induced TH Neuronal Loss”. For the same molecule, the IC50 against DYRK1A is less than 500 nM. In “in vivo” (iv, 5 mg/kg), this molecule had an AUC(0-t) of 1020 ng·h/mL, a Vd of 15.2 L/kg, a clearance of 123 mL/min/kg and a half-life of 2.26 h. Besides, in “in vivo” (po, 30 mg/kg), the AUC(0-t) stood at 1040 ng·h/mL, the peak level (Cmax) was 133 ng/mL, the F is recorded as 24% and the Tmax turned out to be 6.7 h. In addition, in series [2], the “% enzyme inhibition relative to DMSO controls” value was 5-15%. At LRRK2, this molecule showed an IC50 of less than 500 nM. For the same molecule, in series [3], the “protection against MPTP-induced TH cell loss and dopaminergic degeneration in substantia nigra and striatum” value is listed as “dose-dependent protection”; the “locomotor activities” value was “Improve Locomotor Activities”; the “striatal dopamine levels” value is reported as “Restore Striatal Dopamine Levels”. Moreover, in series [4], the “protection against MPTP-induced histological deficits” value was “significantly protected”, the “protection against MPTP-induced motor-deficits” value is “significantly protected” and the “protection against MPTP-induced neurochemical deficits” value is given as “not against neurochemical deficits”. Besides, the IC50 at LRRK2 G2019S is less than 500 nM.
On to `c1ccc2c(c1)CCN2c1cncc(-c2cnc3[nH]ccc3c2)n1` [Compound 134, 5-(6-(indolin-1-yl)pyrazin-2-yl)-1H-pyrrolo[2,3-b]pyridine], for which the “protection against MPTP-induced TH neuronal loss in the substantia nigra and in the striatum” value in series [1] is “Protect Against MPTP-Induced TH Neuronal Loss”. Moreover, the IC50 against DYRK1A was less than 500 nM. In the series “in vivo” (iv, 5 mg/kg), the AUC(0-t) is 1020 ng·h/mL, the Vd amounted to 15.2 L/kg, the clearance is 123 mL/min/kg and the half-life was 2.26 h. Further, in the series “in vivo” (po, 30 mg/kg), the AUC(0-t) is 1040 ng·h/mL, the peak level (Cmax) was 133 ng/mL, the F stood at 24% and the time of peak concentration (Tmax) was found to be 6.7 h. In addition, the “% enzyme inhibition relative to DMSO controls” value in series [2] is 5-15%. The molecule also gave an IC50 on LRRK2 of less than 500 nM. In addition, in series [3], the “protection against MPTP-induced TH cell loss and dopaminergic degeneration in substantia nigra and striatum” value is listed as “dose-dependent protection”; the “locomotor activities” value is recorded as “Improve Locomotor Activities”; the “striatal dopamine levels” value was “Restore Striatal Dopamine Levels”. On LRRK2 G2019S, the IC50 is less than 500 nM.
`Clc1c[nH]c2ncc(-c3cncc(N4CCOCC4)n3)cc12` [Compound 149, 4-(6-(3-chloro-1H-pyrrolo[2,3-b]pyridin-5-yl)pyrazin-2-yl)morpholine]: the 50% inhibitory concentration (IC50) against DYRK1A, against LRRK2 and on LRRK2 G2019S was less than 500 nM each time.
As to `Fc1c[nH]c2ncc(-c3cncc(N4CCOCC4)n3)cc12` [Compound 150, 4-(6-(3-fluoro-1H-pyrrolo[2,3-b]pyridin-5-yl)pyrazin-2-yl)morpholine], the IC50 on DYRK1A, against LRRK2 and on LRRK2 G2019S was less than 500 nM each time.
Turning to `CN1CCN(Cc2cccc(-c3cnc4[nH]ccc4c3)c2)CC1` [Compound 152, 5-(3-((4-methylpiperazin-1-yl)methyl)phenyl)-1H-pyrrolo[2,3-b]pyridine], the IC50 on DYRK1A, against LRRK2 and on LRRK2 G2019S was less than 500 nM each time.
In the case of `COc1ccccc1-c1n[nH]c2ncc(-c3ccsc3)cc12` [Compound 183, 3-(2-methoxyphenyl)-5-(thiophen-3-yl)-1H-pyrazolo[3,4-b]pyridine], the IC50 at DYRK1A, against LRRK2 and against LRRK2 G2019S was less than 500 nM throughout.
For the molecule `COc1ccccc1-c1n[nH]c2ncc(-c3ccoc3)cc12` [Compound 184, 5-(furan-3-yl)-3-(2-methoxyphenyl)-1H-pyrazolo[3,4-b]pyridine], the IC50 against DYRK1A, against LRRK2 and at LRRK2 G2019S was less than 500 nM throughout.
